Results published in patent US8357350B2, “Annulus fibrosus detection in intervertebral discs using molecular imaging agents” (General Electric Company, priority 2009, dated 2013).

What was measured:
Test in all cases: FM fluorophore uptake, intraoperative fluorescence imaging; for Uptake: Dorsal Root Ganglia: key: +: Positive contrast was concluded if the nerve-to-muscle contrast ratio of FM fluorophore-injected animals was elevated relative to control animals; for Uptake: Intervertebral Disc: key: +: Positive contrast was concluded if the nerve-to-muscle contrast ratio of FM fluorophore-injected animals was elevated relative to control animals; for Uptake: Trigeminal Ganglia: key: +: Positive contrast was concluded if the nerve-to-muscle contrast ratio of FM fluorophore-injected animals was elevated relative to control animals
Format in all cases: in vivo, mice and rats
dorsal root ganglia = details: 5 mg/kg mice, 0.5 mg/kg rats IP, 16 hours before imaging; signal normalized to muscle, vs vehicle control
Method: (§1) Imaging was carried out at near infrared wavelenghts using a 400- to 700-nm “white” light (0.5 mW/cm^2) and a 725- to 775-nm NIR fluorescence excitation light (5 mW/cm^2). Fluorescence images were collected using exposure times ranging from 500 to 2000 msec. All images collected for comparison between vehicle-injected control animals and FM fluorophore-injected animals had the same exposure time and normalization. Color video images were collected on a separate optical channel using custom designed software. The excitation and emission LEDs and filter used for the FM fluorophores and Pam800 in the intraoperative imaging system are described as follows. For fluorescence excitation of FM 1-43, FM 2-10, FM 1-43FX and Formula IA, sixty 5-mm 470 nm LEDs ([…], Inc., Kyoto, Japan) fitted with 470±20 nm band pass (BP) excitation filters (Chroma Technology, Rockingham, Vt.) in custom holders were used, which produced a fluence rate on the imaging surface of 0.56 mW/cm^2. For fluorescence excitation of Formula II, FM 4-64, FM 4-64FX and FM 5-95, sixty 5-mm 535 nm LEDs fitted with 525±25 nm BP excitation filters were used, which produced a fluence rate on the imaging surface of 0.34 mW/cm^2. A 610±38 nm BP filter was used to detect fluorescence emission of FM 1-43, FM 2-10, Formula II, FM 1-43FX and Formula IA. To detect fluorescence emission of FM 4-64, FM 4-64FX and FM 5-95 a 720 nm long pass (LP) filter was used. For fluorescence excitation of Pam800, 348 5-mm 760 nm LEDs fitted with 764±17 nm BP excitation filters were used, which produced a fluence rate on the imaging surface of 8.73 mW/cm^2 and fluorescence emission was detected using a 824±24 nm BP emission filter. To assess the structure-activity relationship of the FM fluorophores, each molecule was administered at 5 mg/kg to mice and 0.5 mg/kg to rats (n=4 per group) in 10% DMSO and 90% PBS IP 16 hours before imaging with the intraoperative system. The fluorescence signal from the spinal cord, intervertebral discs, dorsal root ganglia, trigeminal ganglia, optic nerve, brain and femoral nerve were normalized to muscle signal in the same image. This normalization ratio was then compared between FM fluorophore-injected animals and vehicle-injected control animals.

trigeminal ganglia = details: 5 mg/kg mice, 0.5 mg/kg rats IP, 16 hours before imaging; signal normalized to muscle, vs vehicle control
Method: as §1

intervertebral discs = system: intervertebral discs; for Uptake: Intervertebral Disc: key: +: Positive contrast was concluded if the nerve-to-muscle contrast ratio of FM fluorophore-injected animals was elevated relative to control animals
Method: as §1

Question: How did the “Uptake: Dorsal Root Ganglia” value (dorsal root ganglia) turn out when `CCCCN(CCCC)c1ccc(/C=C/c2cc[n+](CCC[N+](C)(C)C)cc2)cc1.[Br-].[Br-]` [Formula IA, (E)-4-(4-(dibutylamino)styryl)-1-(3-(trimethylammonio)propyl)pyridinium dibromide] was run?
Answer: +

Question: What about the “Uptake: Trigeminal Ganglia” value (trigeminal ganglia) of the same compound?
Answer: +

Question: What about the “Uptake: Intervertebral Disc” value (intervertebral discs; 5 mg/kg mice, 0.5 mg/kg rats IP, 16 hours before imaging, signal normalized to muscle, vs vehicle control) of the same compound?
Answer: +

Question: And the “contrast in the intervertebral discs” value (intervertebral discs; IP administration to mice and rats)?
Answer: positive contrast
